Results as given in PMC4503722, “Novel Phenotypic Outcomes Identified for a Public Collection of Approved Drugs from a Publicly Accessible Panel of Assays” (PLoS ONE, 2015).
Read-outs that look alike come from different tables or passages of the source.

What was measured:
[1] = tested on: endothelial tube formation in co-cultures of ECFCs and ADSCs treated with VEGF; assay: cells; type: cell-based, human
INS-1E cells = assay: cells; type: cell-based, rat;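 as to 5mMGluc INS1E SecretionMod IC50/EC50: secreted insulin quantified by homogeneous immunoassay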
NCI-H716 cells = assay: cells; type: cell-based, Human
STC-1 cell line = type: cell-based, mouse
[2] = tested on: ECFC/ADSC co-culture cell nuclei number
HeLa cells = assay: cells; type: cell-based
DLD-1 = assay: cells; type: cell-based
SW480 = assay: cells; type: cell-based
HCT116 = assay: cells; type: cell-based
[3] = tested on: HCT116 cells treated with a GSK3β inhibitor; assay: cells; type: cell-based
Colo320 = assay: cells; type: cell-based
HT-29 = assay: cells; type: cell-based
RKO = assay: cells; type: cell-based
SNU-C1 = assay: cells; type: cell-based
[4] = tested on: nuclear β-catenin in C2C12 cells; assay: cells; type: cell-based; details: for WntCondMedia_bCatenin C2C12 IC50/EC50: assay number 5, concentration response
[5] = tested on: alkaline phosphatase (ALP) activity in C2C12 cells; type: cell-based; details: assay number 6; concentration response
hp70S6K1 (RPS6KB1) = molecular target: T1, hp70S6K1 (RPS6KB1) (Homo sapiens, UniProt P23443); assay: Cerep LANCE kinase assay hp70S6K1 (S1 assay 31); type: biochemical; details: read-out: p70S6K1
T1 construct: purchased Cerep (LANCE kinase assay platform, contract assay)
T1 sequence (P23443 whole entry): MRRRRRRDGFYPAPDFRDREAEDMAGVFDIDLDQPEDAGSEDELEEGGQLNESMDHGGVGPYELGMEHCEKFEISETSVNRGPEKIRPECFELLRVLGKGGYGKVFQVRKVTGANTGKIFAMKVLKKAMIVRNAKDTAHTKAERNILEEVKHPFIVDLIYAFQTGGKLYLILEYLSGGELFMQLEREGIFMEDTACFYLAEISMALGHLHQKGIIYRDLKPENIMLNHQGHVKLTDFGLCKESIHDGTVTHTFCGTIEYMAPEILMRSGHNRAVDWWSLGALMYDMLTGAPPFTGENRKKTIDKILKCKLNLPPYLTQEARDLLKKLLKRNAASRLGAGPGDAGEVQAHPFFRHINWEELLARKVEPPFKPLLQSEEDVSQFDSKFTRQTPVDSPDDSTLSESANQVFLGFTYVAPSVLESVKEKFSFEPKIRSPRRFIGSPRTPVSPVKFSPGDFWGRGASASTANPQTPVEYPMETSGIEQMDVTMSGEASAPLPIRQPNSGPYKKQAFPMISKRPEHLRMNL

hKDR = molecular target: T2, hKDR (Homo sapiens, UniProt P35968); assay: Cerep LANCE kinase assay hKDR (S1 assay 32); type: biochemical; details: read-out: KDR
T2 construct: purchased Cerep (LANCE kinase assay platform, contract assay)
T2 sequence (P35968 20-1356): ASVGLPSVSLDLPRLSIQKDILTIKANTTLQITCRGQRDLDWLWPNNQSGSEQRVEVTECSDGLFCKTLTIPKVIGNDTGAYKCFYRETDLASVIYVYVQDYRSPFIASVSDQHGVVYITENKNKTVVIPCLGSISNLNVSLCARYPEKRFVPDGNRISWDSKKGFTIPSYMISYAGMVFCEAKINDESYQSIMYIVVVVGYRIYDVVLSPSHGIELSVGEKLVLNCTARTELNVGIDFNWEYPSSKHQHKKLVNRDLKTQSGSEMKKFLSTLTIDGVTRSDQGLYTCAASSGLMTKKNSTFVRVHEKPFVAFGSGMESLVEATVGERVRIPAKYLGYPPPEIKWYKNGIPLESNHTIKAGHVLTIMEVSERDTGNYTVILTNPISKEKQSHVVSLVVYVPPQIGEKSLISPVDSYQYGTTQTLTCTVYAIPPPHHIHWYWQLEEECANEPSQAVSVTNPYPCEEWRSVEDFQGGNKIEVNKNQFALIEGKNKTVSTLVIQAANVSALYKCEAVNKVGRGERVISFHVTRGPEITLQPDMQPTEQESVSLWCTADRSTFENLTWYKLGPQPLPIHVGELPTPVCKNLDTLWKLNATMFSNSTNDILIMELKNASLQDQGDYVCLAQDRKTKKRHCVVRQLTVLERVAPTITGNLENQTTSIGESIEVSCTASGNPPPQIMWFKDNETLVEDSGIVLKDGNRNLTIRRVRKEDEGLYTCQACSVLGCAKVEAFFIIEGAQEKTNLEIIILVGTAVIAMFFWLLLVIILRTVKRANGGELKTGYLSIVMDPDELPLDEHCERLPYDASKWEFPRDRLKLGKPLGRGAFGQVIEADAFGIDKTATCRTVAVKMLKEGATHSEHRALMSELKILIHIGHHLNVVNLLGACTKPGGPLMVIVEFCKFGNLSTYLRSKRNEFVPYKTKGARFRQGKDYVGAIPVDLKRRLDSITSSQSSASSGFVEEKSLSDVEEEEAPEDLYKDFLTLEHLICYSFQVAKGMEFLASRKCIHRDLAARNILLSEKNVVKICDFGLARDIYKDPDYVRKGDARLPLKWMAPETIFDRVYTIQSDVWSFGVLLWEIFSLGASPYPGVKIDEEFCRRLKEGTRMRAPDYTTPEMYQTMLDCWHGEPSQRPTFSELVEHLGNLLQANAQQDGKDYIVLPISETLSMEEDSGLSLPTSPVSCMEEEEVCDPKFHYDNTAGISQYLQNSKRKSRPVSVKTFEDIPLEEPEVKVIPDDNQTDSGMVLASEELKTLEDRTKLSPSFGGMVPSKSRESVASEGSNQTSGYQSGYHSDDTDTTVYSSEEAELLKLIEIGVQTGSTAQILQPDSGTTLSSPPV

hJAK2 = molecular target: T3, hJAK2 (Homo sapiens, UniProt O60674); assay: Cerep LANCE kinase assay hJAK2 (S1 assay 33); type: biochemical; details: read-out: JAK2
T3 construct: purchased Cerep (LANCE kinase assay platform, contract assay)
T3 sequence (O60674 whole entry): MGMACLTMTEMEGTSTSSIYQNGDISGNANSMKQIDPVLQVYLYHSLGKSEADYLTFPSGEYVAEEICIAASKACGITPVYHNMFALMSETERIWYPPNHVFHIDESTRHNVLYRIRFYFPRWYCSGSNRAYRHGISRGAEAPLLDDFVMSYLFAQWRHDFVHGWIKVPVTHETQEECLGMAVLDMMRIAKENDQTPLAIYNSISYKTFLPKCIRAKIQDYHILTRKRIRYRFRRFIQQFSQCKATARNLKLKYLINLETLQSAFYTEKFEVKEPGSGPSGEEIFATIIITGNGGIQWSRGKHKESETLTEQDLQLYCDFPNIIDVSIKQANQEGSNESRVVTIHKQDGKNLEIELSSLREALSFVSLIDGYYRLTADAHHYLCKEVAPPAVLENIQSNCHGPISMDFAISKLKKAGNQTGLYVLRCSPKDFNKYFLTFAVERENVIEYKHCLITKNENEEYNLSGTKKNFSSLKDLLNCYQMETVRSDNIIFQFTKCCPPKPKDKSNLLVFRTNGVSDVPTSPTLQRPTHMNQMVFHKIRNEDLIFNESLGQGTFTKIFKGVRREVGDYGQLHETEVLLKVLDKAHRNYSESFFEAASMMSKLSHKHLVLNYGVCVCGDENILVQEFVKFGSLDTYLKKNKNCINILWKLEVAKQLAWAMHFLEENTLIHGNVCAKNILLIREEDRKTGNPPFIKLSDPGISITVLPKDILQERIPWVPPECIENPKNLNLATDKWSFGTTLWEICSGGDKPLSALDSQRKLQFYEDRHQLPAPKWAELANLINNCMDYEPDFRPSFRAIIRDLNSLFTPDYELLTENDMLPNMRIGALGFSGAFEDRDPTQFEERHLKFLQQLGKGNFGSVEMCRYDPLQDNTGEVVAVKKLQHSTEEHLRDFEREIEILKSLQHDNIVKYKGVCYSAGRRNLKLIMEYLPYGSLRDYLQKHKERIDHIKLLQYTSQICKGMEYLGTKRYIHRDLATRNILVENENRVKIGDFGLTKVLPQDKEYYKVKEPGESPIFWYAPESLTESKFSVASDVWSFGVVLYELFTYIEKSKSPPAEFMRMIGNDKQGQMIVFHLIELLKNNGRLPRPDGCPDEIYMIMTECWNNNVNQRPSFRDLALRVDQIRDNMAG

hGSK3b = molecular target: T4, hGSK3b (Homo sapiens, UniProt P49841); assay: Cerep LANCE kinase assay hGSK3b (S1 assay 34); type: biochemical; details: read-out: GSK3b
T4 construct: purchased Cerep (LANCE kinase assay platform, contract assay)
T4 sequence (P49841 whole entry): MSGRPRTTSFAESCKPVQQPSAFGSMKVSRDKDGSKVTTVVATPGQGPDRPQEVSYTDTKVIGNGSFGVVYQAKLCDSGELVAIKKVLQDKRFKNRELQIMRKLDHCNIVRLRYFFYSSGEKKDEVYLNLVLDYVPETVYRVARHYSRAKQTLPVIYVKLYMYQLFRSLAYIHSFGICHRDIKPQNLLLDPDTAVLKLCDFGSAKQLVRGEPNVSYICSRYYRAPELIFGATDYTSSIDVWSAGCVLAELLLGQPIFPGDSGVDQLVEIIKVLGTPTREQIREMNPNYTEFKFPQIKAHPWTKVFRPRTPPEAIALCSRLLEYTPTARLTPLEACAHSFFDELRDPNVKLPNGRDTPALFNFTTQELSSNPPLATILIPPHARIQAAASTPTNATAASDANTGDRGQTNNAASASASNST

hFLT3 = molecular target: T5, hFLT3 (Homo sapiens, UniProt P36888); assay: Cerep LANCE kinase assay hFLT3 (S1 assay 35); type: biochemical; details: read-out: FLT3
T5 construct: purchased Cerep (LANCE kinase assay platform, contract assay)
T5 sequence (P36888 27-993): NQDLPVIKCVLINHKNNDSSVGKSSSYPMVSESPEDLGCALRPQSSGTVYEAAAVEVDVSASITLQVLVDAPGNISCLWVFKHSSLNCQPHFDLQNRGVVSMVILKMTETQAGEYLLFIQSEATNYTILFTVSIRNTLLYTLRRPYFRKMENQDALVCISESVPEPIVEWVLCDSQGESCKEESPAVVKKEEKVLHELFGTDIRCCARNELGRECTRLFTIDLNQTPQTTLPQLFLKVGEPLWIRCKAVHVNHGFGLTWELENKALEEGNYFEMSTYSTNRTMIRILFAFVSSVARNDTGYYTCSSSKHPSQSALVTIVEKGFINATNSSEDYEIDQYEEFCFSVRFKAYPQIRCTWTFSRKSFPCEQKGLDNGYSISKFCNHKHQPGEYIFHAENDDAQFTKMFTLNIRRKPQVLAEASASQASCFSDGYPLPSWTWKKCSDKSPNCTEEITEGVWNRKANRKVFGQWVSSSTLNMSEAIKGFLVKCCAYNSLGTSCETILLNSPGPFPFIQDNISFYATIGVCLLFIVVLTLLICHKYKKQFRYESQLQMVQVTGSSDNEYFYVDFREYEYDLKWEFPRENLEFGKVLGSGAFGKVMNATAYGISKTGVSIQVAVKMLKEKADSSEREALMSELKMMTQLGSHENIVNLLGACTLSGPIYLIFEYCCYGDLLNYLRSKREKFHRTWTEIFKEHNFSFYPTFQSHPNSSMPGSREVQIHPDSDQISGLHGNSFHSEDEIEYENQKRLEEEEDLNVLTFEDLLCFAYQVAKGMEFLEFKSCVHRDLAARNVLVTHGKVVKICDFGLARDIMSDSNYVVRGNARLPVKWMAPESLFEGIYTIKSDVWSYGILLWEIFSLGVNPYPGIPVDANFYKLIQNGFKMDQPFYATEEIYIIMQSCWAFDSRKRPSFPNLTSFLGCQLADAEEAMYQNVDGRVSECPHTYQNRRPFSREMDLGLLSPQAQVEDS

In the case of Cc1c(N)cccc1C(F)(F)F [NCGC00253636-01], the “VEGF_ADSC\ECFC Angio CD31 TubeArea IC50/EC50” value [1] is reported as over 10 µM, the “5mMGluc_INS1E SecretionMod IC50/EC50” value (INS-1E cells; assay number 8, 5 mM glucose) is reported as over 33.33 µM and the “hNCI-H716 GLP1 Secretion IC50/EC50” value (NCI-H716 cells; assay number 12) is reported as over 40 µM. For the same compound, the “mSTC-1 GLP1 Secretion IC50/EC50” value (STC-1 cell line; assay number 13) was over 40 µM and the “VEGF_ADSC\ECFC Angio Hoechst NucArea IC50/EC50” value [2] was over 10 µM.

CN1CCCC(CC2c3ccccc3Sc3ccccc32)C1.Cl (stereo not drawn) [NCGC00273481-01] was tested, and the “VEGF_ADSC\ECFC Angio CD31 TubeArea IC50/EC50” value [1] was 8.6842 µM, the “5mMGluc_INS1E SecretionMod IC50/EC50” value (INS-1E cells) was over 11.11 µM and the “hNCI-H716 GLP1 Secretion IC50/EC50” value (NCI-H716 cells) was over 40 µM. The “mSTC-1 GLP1 Secretion IC50/EC50” value (STC-1 cell line) was over 40 µM, the “Hela CellCycMod PI 2N IC50/EC50” value (HeLa cells) was over 10 µM and the “Hela CellCycMod PI 4N IC50/EC50” value (HeLa cells) was over 10 µM. For the same compound, the “Hela CellCycMod PI Cell Number IC50/EC50” value (HeLa cells) was over 10 µM, the “Hela CellCycMod PI MI IC50/EC50” value (HeLa cells) was over 10 µM and the “Basal_Viability ATP DLD-1 IC50/EC50” value (DLD-1) was over 20 µM. The “Basal_Viability ATP SW480 IC50/EC50” value (SW480) was 4.7038 µM, the “Basal_Viability ATP HCT116 IC50/EC50” value (HCT116) was over 20 µM and the “GSK3b inh pretreated_Viability ATP HCT116 IC50/EC50” value [3] was 8.6816 µM. For the same compound, the “Basal_Viability ATP Colo 320 IC50/EC50” value (Colo320) was over 20 µM, the “Basal_Viability ATP HT-29 IC50/EC50” value (HT-29) was 6.4328 µM and the “Basal_Viability ATP RKO IC50/EC50” value (RKO) was 3.4891 µM. The “Basal_Viability ATP SNU-C1 IC50/EC50” value (SNU-C1) was 15.0863 µM and the “VEGF_ADSC\ECFC Angio Hoechst NucArea IC50/EC50” value [2] was over 10 µM.

Cl.O[C@@H](c1cc(C(F)(F)F)nc2c(C(F)(F)F)cccc12)[C@H]1CCCCN1 [NCGC00161831-04] was tested, and the “VEGF_ADSC\ECFC Angio CD31 TubeArea IC50/EC50” value [1] was over 10 µM, the “WntCondMedia_bCatenin C2C12 IC50/EC50” value [4] was over 20 µM and the “WntCondMedia_Alk Phos C2C12 IC50/EC50” value [5] was over 20 µM. The “VEGF_ADSC\ECFC Angio Hoechst NucArea IC50/EC50” value [2] was 8.609 µM.

With COc1cc([C@@H]2c3cc4c(cc3[C@@H](O[C@@H]3O[C@@H]5CO[C@@H](C)O[C@@H]5[C@H](O)[C@@H]3O)[C@H]3COC(=O)[C@H]23)OCO4)cc(OC)c1O [NCGC00179504-05] the “VEGF_ADSC\ECFC Angio CD31 TubeArea IC50/EC50” value [1] was 0.1091 µM, the “WntCondMedia_bCatenin C2C12 IC50/EC50” value [4] was over 20 µM and the “WntCondMedia_Alk Phos C2C12 IC50/EC50” value [5] was over 20 µM. The “VEGF_ADSC\ECFC Angio Hoechst NucArea IC50/EC50” value [2] was 0.9666 µM.

In the case of CC(C)CCCC(C)NCCC(C)C (stereo not drawn) [NCGC00261980-01], the “VEGF_ADSC\ECFC Angio CD31 TubeArea IC50/EC50” value [1] is reported as over 10 µM, the “5mMGluc_INS1E SecretionMod IC50/EC50” value (INS-1E cells; assay number 8, 5 mM glucose) is reported as over 33.33 µM and the “hNCI-H716 GLP1 Secretion IC50/EC50” value (NCI-H716 cells; assay number 12) is reported as over 40 µM. For the same compound, the “mSTC-1 GLP1 Secretion IC50/EC50” value (STC-1 cell line; assay number 13) was over 40 µM and the “VEGF_ADSC\ECFC Angio Hoechst NucArea IC50/EC50” value [2] was over 10 µM.

In the case of CCCCCCCCCCCCCC[N+](C)(C)Cc1ccccc1 [NCGC00187943-02], the “VEGF_ADSC\ECFC Angio CD31 TubeArea IC50/EC50” value [1] is reported as 3.0091 µM, the “WntCondMedia_bCatenin C2C12 IC50/EC50” value [4] is reported as over 20 µM and the “WntCondMedia_Alk Phos C2C12 IC50/EC50” value [5] is reported as over 20 µM. For the same compound, the “VEGF_ADSC\ECFC Angio Hoechst NucArea IC50/EC50” value [2] was 8.357 µM.

In the case of O=C(CBr)Nc1ccc(Cl)cc1C(=O)c1ccccc1F [NCGC00253724-01], the “VEGF_ADSC\ECFC Angio CD31 TubeArea IC50/EC50” value [1] is reported as over 10 µM, the “5mMGluc_INS1E SecretionMod IC50/EC50” value (INS-1E cells; assay number 8, 5 mM glucose) is reported as over 33.33 µM and the “hNCI-H716 GLP1 Secretion IC50/EC50” value (NCI-H716 cells; assay number 12) is reported as over 40 µM. For the same compound, the “mSTC-1 GLP1 Secretion IC50/EC50” value (STC-1 cell line; assay number 13) was over 40 µM and the “VEGF_ADSC\ECFC Angio Hoechst NucArea IC50/EC50” value [2] was over 10 µM.

In the case of Cc1ccc(O)cc1 [NCGC00091519-09], the “VEGF_ADSC\ECFC Angio CD31 TubeArea IC50/EC50” value [1] is reported as over 10 µM, the “5mMGluc_INS1E SecretionMod IC50/EC50” value (INS-1E cells; assay number 8, 5 mM glucose) is reported as over 33.33 µM and the “hNCI-H716 GLP1 Secretion IC50/EC50” value (NCI-H716 cells; assay number 12) is reported as over 40 µM. For the same compound, the “mSTC-1 GLP1 Secretion IC50/EC50” value (STC-1 cell line; assay number 13) was over 40 µM and the “VEGF_ADSC\ECFC Angio Hoechst NucArea IC50/EC50” value [2] was over 10 µM.

In the case of C=CC(=O)Nc1cc2c(Nc3ccc(F)c(Cl)c3)ncnc2cc1OCCCN1CCOCC1 [NCGC00182713-01], the “WntCondMedia_bCatenin C2C12 IC50/EC50” value [4] is reported as 1.0017 µM, the “WntCondMedia_Alk Phos C2C12 IC50/EC50” value [5] is reported as 9.4628 µM and the “Hela CellCycMod PI 2N IC50/EC50” value (HeLa cells; assay number 14, 2N) is reported as 8.8729 µM. For the same compound, the “Hela CellCycMod PI S Phase IC50/EC50” value (HeLa cells; assay number 15, S phase) was over 10 µM, the “Hela CellCycMod PI 4N IC50/EC50” value (HeLa cells; assay number 16, 4N) was over 10 µM and the “Hela CellCycMod PI MI IC50/EC50” value (HeLa cells; assay number 17, MI) was 4.2934 µM. For the same compound, the “Hela CellCycMod PI Cell Number IC50/EC50” value (HeLa cells; assay number 18, cell number) was 2.0936 µM.

In the case of Cc1ccc([N+](=O)[O-])[c]2c1[O][Hg]2 [nitromersol, reference compound], the IC50 ([1]; IC50 / EC50, endothelial tube area, ADSC/ECFC co-culture, read-out: Anti-Angiogenesis) is reported as 0.668 µM, the EC50 ([4]; IC50 / EC50, C2C12 beta-catenin translocation, read-out: Wnt Pathway) is reported as 0.155 µM and the EC50 (INS-1E cells; IC50 / EC50, INS-1E, read-out: Insulin Secretion) is reported as over 20 µM. For the same compound, the “activity in NCI-H716 GLP-1 secretion assay (in words)” value (NCI-H716 cells) was “potent actives”, the EC50 (NCI-H716 cells; IC50 / EC50, NCI-H716, read-out: GLP 1 Secretion) was 0.0972 µM and the “activity in STC-1 GLP-1 secretion assay (in words)” value (STC-1 cell line) was “potent actives”. The EC50 (HeLa cells; IC50 / EC50, HeLa, read-out: CellCycle G2/M) was over 10 µM, the IC50 (DLD-1; basal, read-out: Basal_Viability ATP DLD-1) was 1.62 µM and the IC50 (SW480; basal, read-out: Basal_Viability ATP SW480) was 1.13 µM. For the same compound, the IC50 (HCT116; basal, read-out: Basal_Viability ATP HCT116) was 2.83 µM, the IC50 ([3]; GSK3b inhibitor pretreated, read-out: GSK3b inh pretreated_Viability ATP HCT116) was over 20 µM and the IC50 (Colo320; basal, read-out: Basal_Viability ATP Colo 320) was 0.935 µM. For the same compound, the IC50 (HT-29; basal, read-out: Basal_Viability ATP HT-29) was 1.44 µM, the IC50 (SNU-C1; basal, read-out: Basal_Viability ATP SNU-C1) was 0.202 µM and the IC50 (hp70S6K1 (RPS6KB1)) was over 20 µM. It also gave an IC50 (hKDR) of 16.8 µM, an IC50 (hJAK2) of over 20 µM and an IC50 (hGSK3b) of 8.37 µM. The IC50 (hFLT3) was 10.4 µM.
